Measurements published in US7820202B2, “Extended release particle dispersion” (Laboratorios Farmaceuticos Rovi S.A., priority 2000, dated 2010).

Assays:
[1] = cited from earlier work
[2] = Encapsulation efficiency of drug in PLGA extended release particles; assay type: physicochemical; details: poly(d,l-lactide-co-glycolide) particles formed by mixing two liquid preproducts (ethyl acetate polymer solution / aqueous phase)
Method: A solution of poly(d,l-lactide-co-glycolide) (75/25, RG752 or 50/50, RG 502H or 503H from Böhringer Ingelheim) (40% w/w) in ethyl acetate (syringe 1) (200μl) (first liquid preproduct) is mixed with an aqueous phase (water for injection, Tween 80- or alternatively Pluronic F 68-, Na carboxy methylcellulose) (syringe 2) (2ml) (second liquid preproduct) by connecting the two syringes with a connector or by screwing the two syringes together and by pushing the plungers forward and backward (25 mixing cycles). The extended release particles are thereby formed, which are dispersed in the aqueous phase and which are ready to be injected.
(§1) Like example 1. In addition, a water-insoluble salt of leuprolide, leuprolide oleate, was formed from aqueous leuprolide acetate and sodium oleate solutions. The insoluble salt was separated from the aqueous phase, dried and then added to the poly(d,l-lactide-co-glycolide) solution to form the first liquid preproduct, wherein the drug is dispersed and/or dissolved in the polymer solution. The first liquid preproduct is mixed with and dispersed in the second liquid preproduct.

[3] = Drug release from extended release particles in pH 7.4 phosphate buffer; assay type: physicochemical; details: pH 7.4 phosphate buffer (simulates body fluids); compared to the water-soluble salt, leuprolide acetate
From the text: as §1

| encapsulation efficiencies [2] | Compound | solubility in water [1] | retardation in drug release [3] |
| --- | --- | --- | --- |
|  | CCOC(C)=O [ethylacetate] | approx. 10% |  |
|  | CC(=O)OCC(COC(C)=O)OC(C)=O [triacetin] | approx. 8% |  |
| > 85% | leuprolide oleate |  | even more pronounced retardation in drug release |
